Measurements as given in the NIST ThermoML archive (doi:10.1016/j.tca.2010.06.003).
± gives the expanded uncertainty stated by the source.

Settings: for Normal melting temperature: Crystal; for Triple point temperature: Crystal 2, DTA

SMILES: O=[N+]([O-])[O-].[Na+] [sodium nitrate]
- Normal melting temperature: 306.5 ± 2 °C
- Triple point temperature: 545.5 ± 0.5 K

SMILES: O=[N+]([O-])[O-].[K+] [potassium nitrate]
- Normal melting temperature: 333.6 ± 2 °C
- Triple point temperature: 405.6 ± 0.5 K
